pIC50: −log10 of the molar value. Where only a bound is given, the exact number is not on record here.

A word on the pIC50: it is −log10 of the IC50, conventionally taken in molar units. Higher therefore signals a small IC50.

This test is described as follows: Inhibitory activity against yeast aldehyde dehydrogenase (AIDH).
`CON(c1ccccc1)S(=O)(=O)c1ccccc1` [N-Methoxy-N-phenyl-benzenesulfonamide] had a negative-log IC50 (pIC50) of under 3.00.

For the compound `CCOC(=O)ON(C(=O)OCC)S(C)(=O)=O` [ethyl (ethoxycarbonyl)oxy(methylsulfonyl)carbamate], the pIC50 is 4.45.

`CCOC(=O)ON(c1ccccc1)S(=O)(=O)c1ccccc1` [N-[(ethoxycarbonyl)oxy]-N-phenylbenzenesulfonamide] had a pIC50 of 4.19.

`COC(=O)ON(c1ccccc1)S(=O)(=O)c1ccccc1` [N-[(methoxycarbonyl)oxy]-N-phenylbenzenesulfonamide]: the pIC50 was 4.42.

For `CC(=O)ON(c1ccccc1)S(=O)(=O)c1ccccc1` [N-Acetoxy-N-phenyl-benzenesulfonamide], the pIC50 is 4.44.

`CC(=O)ON(C(C)=O)S(C)(=O)=O` [N-Acetoxy-N-acetyl-methanesulfonamide] had a pIC50 of 3.00.

Compound `O=Nc1ccccc1` [NOB] gave a pIC50 of 5.60.

As for `COC(=O)ON(C(=O)OC)S(C)(=O)=O` [methyl (methoxycarbonyl)oxy(methylsulfonyl)carbamate], the negative-log IC50 (pIC50) was 4.68.
